Assays:
[1] = test system: Trichoplusia ni (cabbage looper) larvae; assay: In-planta insecticidal efficacy (sprayed green cabbage plants, larval survival, Abbott and Colby formulas) against Trichoplusia ni; format: in vivo; details: aliphatic acid 750 ppm, alone or combined; for Observed Efficacy, W: Abbott formula
[2] = test system: Trichoplusia ni (cabbage looper) larvae; assay: In-vitro insecticidal efficacy (mortality and bioactivity, treated artificial diet, Abbott and Colby formulas) against Trichoplusia ni; format: in vivo; details: aliphatic acid (salt) 500 ppm, alone or combined; for Survival Rate (100-(mortality + stunted)): Table 70B, Coragen 0.505 ppm (0.09292 ppm chlorantraniliprole)
Description: An artificial diet suitable for Trichoplusia ni (cabbage looper caterpillar) was prepared from a commercially available general purpose lepidoptera artificial diet premix (such as General Purpose Lepidoptera Diet available from Frontier Scientific Services, Newark, DE) and mixed in a heated liquid agar media (0.022 g agar per ml of water). The liquid artificial diet and agar media was then used to fill each well of a transparent 96-well treatment plate with 200 μL of the artificial diet and agar media, which was allowed to solidify at room temperature and stored at approximately 4 C.
A 20 μL treatment sample of each treatment formulation was then placed on top of the solidified artificial diet media in a well of a 96 well plate and allowed to dry overnight.
(§1) The following day, one neonate Trichoplusia ni (cabbage looper) larva (hatched from eggs obtained from the Benzon Research, Inc. of Carlisle, PA, USA) was added to each well of the plate, after which the wells were sealed with a perforated transparent film, allowing air and moisture exchange. The plates were kept in a suitable regulated indoor incubation environment and the larvae were allowed to feed on the treatment overlaid diet/agar media for 5 days. […] Each experiment contained 8 replicates (larvae cells) for each treatment.
(§2) While for SF<1, antagonism is present and for SF=1, the efficacy of the compounds is merely additive.
as §1, with “such as available” for “obtained”, “from” for “from the”
as §2

Fusarium oxysporum = assay: Synergistic Growth Inhibition Assay (MIC / FIC index, 96-well microtiter, resazurin) against Fusarium oxysporum; format: cell-based; details: Compound B tested alone; 24 hour incubation
Description: In the Synergistic Growth Inhibition Assay used in accordance with some embodiments of the present disclosure, multiple dilutions of combinations of pesticidal active ingredient and at least one C6-C10 saturated or unsaturated aliphatic acid agents are tested in individual cells for inhibitory activity against a target pest or pathogenic organism. […] In a further such embodiment, the combinations of pesticidal active ingredient and C6-C10 (or alternatively C11 or C12) saturated or unsaturated aliphatic acid agents may be tested in increasing concentrations.
Thus, each well of the microtiter plate is a unique combination of the two agents, at which inhibitory efficacy of the combination against the target pest or pathogen can be determined.
In one embodiment according to the present disclosure, for each row of microtiter cells in the Synergistic Growth Inhibition Assay, the FIC index is calculated from the lowest concentration of the pesticidal active ingredient and one or more C6-C10 saturated or unsaturated aliphatic acid agents necessary to inhibit growth of a target pest or pathogen. The FIC of each component is derived by dividing the concentration of the agent present in that well of the microtiter plate by the minimal inhibitory concentration (MIC) needed of that agent alone to inhibit growth of the target pest or pathogen. […] The FIC index is calculated for each row as follows: […]

[3] = test system: Trichoplusia ni (cabbage looper) larvae; assay: In-planta insecticidal efficacy (sprayed green cabbage plants, larval survival, Abbott and Colby formulas) against Trichoplusia ni; format: in vivo; details: Exirel at […] ([…] cyantraniliprole), aliphatic acids at 750 ppm; for Observed Efficacy, W (%): Abbott formula vs 10% isopropanol control; for Survival Rate (%): in-planta, T. ni larvae on sprayed cabbage, 10% isopropanol
Description: Water and 10% isopropanol were tested as control treatments.
Green cabbage plants (Brassica oleracea var. capitate, Danish Ballhead cultivar) were grown from seed (available from West Coast Seeds, Delta, BC, Canada) in potting soil for 4-6 weeks in a pest-free indoor growing environment. At between 4-6 weeks of age, each cabbage plant was sprayed with 20 mL of treatment solution using a pressurized CO2 sprayer from approximately 18 inches above the plant, and allowed to dry.
as §2
Cyantraniliprole was provided as the active ingredient in Exirel® insecticide (available from FMC Corp., Philadephia, PA, USA), and is present as 10% w/w of the Exirel® insecticide product formulation.

[4] = Table 71, Coragen […] (0.105 ppm chlorantraniliprole)
[5] = Table 69B, Coragen 0.2525 ppm (0.04646 ppm chlorantraniliprole), in-vitro
[6] = Table 72, Coragen […] (0.104 ppm chlorantraniliprole)

CC/C=C/CC(=O)O [Trans-3-hexenoic acid, trans-3-hexenoic acid]
Survival Rate [1, 4]: 64.50%
Observed Efficacy, W ([1]; Table 71, Coragen […]): 7.19%
Survival Rate (100-(mortality + stunting)) [2, 5]: 91.67%

C/C=C/C=C/C(=O)O [(2E,4E)-2,4-hexadienoic acid]
MIC (B) (Fusarium oxysporum): 125 µg/mL

CCCCCC=CCC(=O)O [3-nonenoic acid]
Survival Rate (100-(mortality + stunted)) ([2]; in-vitro): 95.83%

CCCCCCC(O)C(=O)O (stereo not drawn) [2-hydroxyoctanoic acid]
Survival Rate (100-(mortality + stunting)) [2, 5]: 100.00%

CCC(C)CCC(=O)O (stereo not drawn) [4-methylhexanoic acid]
Survival Rate (100-(mortality + stunting)) [2, 5]: 100.00%

CCCCCC(=O)O [Hexanoic acid]
MIC (B) (Fusarium oxysporum): 290 µg/mL
Survival Rate (100-(mortality + stunting)) [2, 5]: 87.50%
Survival Rate (100-(mortality + stunted)) ([2]; in-vitro): 100%

CCCCCCCCCC(=O)O [Decanoic acid]
Survival Rate (100-(mortality + stunting)) [2, 5]: 83.33%

CC/C=C/CC(=O)[O-].[K+] [trans-3-Hexenoic acid, potassium salt]
Observed Efficacy, W (%) [3]: 7.1%
Survival Rate (%) [3]: 70.8%

CC/C=C\CC(=O)O [cis-3-hexenoic acid]
Survival Rate (100-(mortality + stunting)) [2, 5]: 83.33%

CCCCC(CC)C(=O)O (stereo not drawn) [2-ethylhexanoic acid]
Survival Rate (100-(mortality + stunting)) [2, 5]: 95.83%

CCCC(C)CC(=O)O (stereo not drawn) [3-methylhexanoic acid]
Survival Rate (100-(mortality + stunting)) [2, 5]: 83.33%

CCCCC/C=C/C(=O)O [Trans-2-octenoic acid, trans-2-octenoic acid]
Survival Rate [1, 6]: 77.00%
Observed Efficacy, W ([1]; Table 72, Coragen […]): 0.00%
Survival Rate (100-(mortality + stunting)) [2, 5]: 70.83%
Survival Rate (100-(mortality + stunted)) ([2]; in-vitro): 87.50%

CCCCCCCC(O)CC(=O)O (stereo not drawn) [3-hydroxdecanoic acid]
Survival Rate (100-mortality) ([2]; Table 69A, Coragen 0.2525 ppm (0.04646 ppm chlorantraniliprole), in-vitro): 100.00%
Observed Efficacy (mortality), W ([2]; Table 69A, Coragen 0.2525 ppm, Abbott formula): 0.00%
Survival Rate (100-(mortality + stunting)) [2, 5]: 87.50%
Observed Efficacy (bioactivity), W ([2]; Table 69B, bioactivity = mortality + growth stunting, Coragen 0.2525 ppm, Abbott formula): 0.00%

O=C(O)CCCCCCCCCO [10-hydroxydecanoic acid]
Survival Rate [1, 6]: 73.50%
Observed Efficacy, W ([1]; Table 72, Coragen […]): 0.00%
Survival Rate ([1]; Table 73, Coragen […] (0.104 ppm chlorantraniliprole)): 40.50%
Observed Efficacy, W ([1]; Table 73, Coragen […]): 36.72%
Survival Rate (100-(mortality + stunting)) [2, 5]: 75.00%

CC(O)CC(=O)O (stereo not drawn) [3-Hydroxybutyric acid, 3-hydroxybutyric acid]
Survival Rate (100-(mortality + stunting)) [2, 5]: 95.83%

CCCCCCCCC(=O)O [Nonanoic acid]
Survival Rate (100-(mortality + stunting)) [2, 5]: 95.83%
Survival Rate (100-(mortality + stunted)) ([2]; in-vitro): 62.50%

CCCC/C=C/CC(=O)O [trans-3-octenoic acid]
Survival Rate (100-(mortality + stunting)) [2, 5]: 83.33%

C/C=C/C=C/C(=O)[O-].[K+] [(2E,4E)-2,4 hexadienoic acid potassium salt]
Survival Rate (100-(mortality + stunting)) [2, 5]: 95.83%
Survival Rate (100-(mortality + stunted)) ([2]; in-vitro): 70.83%

C=CCCCCCCCC(=O)O [9-Decenoic acid, 9-decenoic acid]
Observed Efficacy, W (%) [3]: −0.4%
Survival Rate (%) [3]: 65.8%
Survival Rate (100-(mortality + stunting)) [2, 5]: 91.67%

CCC/C=C/C(=O)[O-].[K+] [trans-2-hexenoic acid potassium salt]
Survival Rate (100-(mortality + stunting)) [2, 5]: 91.67%
Survival Rate (100-(mortality + stunted)) ([2]; in-vitro): 83.33%

CCCCCCCCCC(=O)[O-].[K+] [Potassium Caprate]
Observed Efficacy, W (%) [3]: 5.5%
Survival Rate (%) [3]: 69.7%

CCCCCCCC(=O)O [Octanoic acid]
Survival Rate (100-(mortality + stunted)) ([2]; in-vitro): 95.83%

CCCCCCC(=O)O [Heptanoic acid]
Survival Rate (100-(mortality + stunting)) [2, 5]: 91.67%

C/C=C/C=C/C(=O)O [(2E,4E)-2,4 hexadienoic acid]
Survival Rate (100-(mortality + stunting)) [2, 5]: 79.17%

CCCCCCCCCCCC(=O)O [Dodecanoic acid]
Survival Rate (100-(mortality + stunting)) [2, 5]: 79.17%

CCC/C=C/C(=O)[O-].[K+] [trans-2-Hexenoic acid, potassium salt]
Observed Efficacy, W (%) [3]: 11.3%
Survival Rate (%) [3]: 73.6%

CCCCC(O)C(=O)O (stereo not drawn) [2-hydroxyhexanoic acid]
Survival Rate (100-(mortality + stunting)) [2, 5]: 91.67%

O=C(O)CCCCCCCCCCCO [12-hydroxydodecanoic acid]
Survival Rate (100-(mortality + stunting)) [2, 5]: 91.67%

CCCCCC/C=C/C(=O)O [trans-2-nonenoic acid]
Survival Rate (100-(mortality + stunting)) [2, 5]: 75.00%
Survival Rate (100-(mortality + stunted)) ([2]; in-vitro): 100%

CCCCCCC/C=C/C(=O)O [Trans-2-decenoic acid, trans-2-decenoic acid]
Survival Rate [1, 6]: 81.00%
Observed Efficacy, W ([1]; Table 72, Coragen […]): 0.00%
Survival Rate (%) [3]: 66.1%
Survival Rate (100-(mortality + stunting)) [2, 5]: 79.17%

C=CCCCC(=O)O [5-hexenoic acid]
Survival Rate (100-(mortality + stunting)) [2, 5]: 100.00%

CCCCCCC(C)CC(=O)O (stereo not drawn) [3-methylnonanoic acid]
Survival Rate (100-(mortality + stunting)) [2, 5]: 79.17%

CCCCCCCCC(C)C(=O)O (stereo not drawn) [2-methyldecanoic acid]
Survival Rate (100-(mortality + stunting)) [2, 5]: 87.50%

CCCCC=CCC(=O)O [3-Octenoic acid, 3-octenoic acid]
Survival Rate (100-(mortality + stunting)) [2, 5]: 83.33%

CCCC=CCC(=O)O [3-heptenoic acid]
Survival Rate (100-(mortality + stunted)) ([2]; in-vitro): 95.83%

CCCCCCC(C)C(=O)O (stereo not drawn) [2-methyloctanoic acid]
Survival Rate (100-(mortality + stunting)) [2, 5]: 95.83%

CCCCCCCC/C=C/C(=O)O [trans-2-undecenoic acid]
Survival Rate (100-(mortality + stunting)) [2, 5]: 87.50%

CCC/C=C/C(=O)O [Trans-2-hexenoic acid, trans-2-hexenoic acid]
Survival Rate [1, 4]: 56.50%
Observed Efficacy, W ([1]; Table 71, Coragen […]): 18.71%
Survival Rate (100-(mortality + stunting)) [2, 5]: 91.67%

Source: patent publication US20240389581A1, “SYNERGISTIC PESTICIDAL COMPOSITIONS AND METHODS FOR DELIVERY OF INSECTICIDAL ACTIVE INGREDIENTS” (TERRAMERA, INC., priority 2021, published 2024)
